Read-outs that look alike come from different tables or passages of the source.
Key:
MCT8 [1] = molecular target: T1, MCT8 (Rattus norvegicus, UniProt Q8K1P8, G227D/I169T/S199P/T171I); experiment: Inhibition of uptake of labeled T4 and T3 in MCT8 cRNA-injected oocytes by putative competitors; type: cell-based; parameters: the stop codon of MCT8 was removed by performing PCR using the same sense primer as above; expressed in transfected cells; host or cells: Xenopus laevis oocytes injected with cRNA transcribed from pGEM-HeJuel
Protocol: (§1) Oocytes were isolated and allowed to recover overnight at 18 C in modified Barth's solution containing 20 IU/ml penicillin and 20 gg/ml streptomycin as described before (23). […] Uninjected or water injected oocytes were used as controls.
Transport measurements in oocytes—Oocytes were washed and preincubated at 18 C in standard uptake solution (100 mM NaCl, 2 mM KCl, 1 mM CaCl2, 1 mM MgCl2, 10 mM HEPES, and 10 mM Tris, pH 7.5). […] The possible Na^+ dependence of transport was tested by preincubation and incubation in Na^+-free uptake solution in which NaCl was replaced by choline chloride. The influence of the temperature on the uptake rate was tested by the incubation of oocytes with uptake solutions at different temperatures between 4 and 37 C. […] The incubation was stopped by aspiration of the medium, and oocytes were washed 4 times at 4 C with standard uptake solution containing 0.1% BSA.

MCT8 [2] = molecular target: T1, MCT8; experiment: Transport (uptake) of radioactive ligands by MCT8 expressed in X. laevis oocytes; type: cell-based; parameters: the stop codon of MCT8 was removed by performing PCR using the same sense primer as above; expressed in transfected cells; host or cells: Xenopus laevis oocytes injected with cRNA transcribed from pGEM-HeJuel
Protocol: Xenopus oocytes were isolated and injected with 4.6 ng rat MCTS cRNA. After 3 days, groups of 10 injected or uninjected oocytes were incubated for 60 mm at 25 C with 10 nM radioactive iodothyronines in 0.1 ml medium. Uptake of iodothyronines was determined as previously described (18).
as §1
Transport measurements in oocytes—Oocytes were washed and preincubated at 18 C in standard uptake solution (100 mM NaCl, 2 mM KCl, 1 mM CaCl2, 1 mM MgCl2, 10 mM HEPES, and 10 mM Tris, pH 7.5). Usually, transport was tested by incubation of groups of 5-10 oocytes for 2-60 mm at 25 C with 10 nM [1251]iodothyronines or 10 μM [3H]amino acids in 0.1 ml standard uptake solution. The possible Na^+ dependence of transport was tested by preincubation and incubation in Na^+-free uptake solution in which NaCl was replaced by choline chloride. The influence of the temperature on the uptake rate was tested by the incubation of oocytes with uptake solutions at different temperatures between 4 and 37 C. […] The incubation was stopped by aspiration of the medium, and oocytes were washed 4 times at 4 C with standard uptake solution containing 0.1% BSA.

MCT8 [3] = molecular target: T1, MCT8; experiment: Transport kinetics of MCT8-mediated iodothyronine uptake in oocytes (Michaelis-Menten); parameters: dose or concentration left out as unconfirmed; settings: net transport
Protocol: Apparent Km values were calculated by fitting the plot of uptake rate (v) versus ligand concentration (5) to the Michaelis Menten equation: v=Vmax/(1+Km/S), wherein Vmax is the maximum uptake rate, and Km the Michaelis constant. Calculations were performed using the Slide Write Plus program version 5.01 (Advanced Graphics Software).

rat MCT1 = molecular target: T2, rat MCT1 (Rattus norvegicus, UniProt P53987); settings: data not shown
T2 sequence (P53987 1-494): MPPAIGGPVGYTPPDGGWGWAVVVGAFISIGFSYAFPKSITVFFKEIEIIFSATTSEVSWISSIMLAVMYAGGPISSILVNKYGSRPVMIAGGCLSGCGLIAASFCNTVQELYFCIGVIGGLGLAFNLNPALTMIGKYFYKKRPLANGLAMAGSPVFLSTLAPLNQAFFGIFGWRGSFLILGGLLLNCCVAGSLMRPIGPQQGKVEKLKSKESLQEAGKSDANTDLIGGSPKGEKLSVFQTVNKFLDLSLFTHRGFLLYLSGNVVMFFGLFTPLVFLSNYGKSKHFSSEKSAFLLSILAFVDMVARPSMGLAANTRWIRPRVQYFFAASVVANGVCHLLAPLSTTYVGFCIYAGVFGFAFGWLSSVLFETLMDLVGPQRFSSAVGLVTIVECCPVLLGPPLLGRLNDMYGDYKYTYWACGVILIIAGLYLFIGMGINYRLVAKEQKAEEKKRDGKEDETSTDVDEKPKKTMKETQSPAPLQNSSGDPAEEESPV

MCT8 [4] = molecular target: T1, MCT8; experiment: Transport (uptake) of radioactive ligands by MCT8 expressed in X. laevis oocytes; type: cell-based; parameters: the stop codon of MCT8 was removed by performing PCR using the same sense primer as above; expressed in transfected cells; host or cells: Xenopus laevis oocytes injected with cRNA transcribed from pGEM-HeJuel; settings: 0.23 ng MCT8 cRNA injected; 10 nM ligand, 2 min, 25 C

T1 sequence (Q8K1P8 whole entry I169T/T171I/S199P/G227D): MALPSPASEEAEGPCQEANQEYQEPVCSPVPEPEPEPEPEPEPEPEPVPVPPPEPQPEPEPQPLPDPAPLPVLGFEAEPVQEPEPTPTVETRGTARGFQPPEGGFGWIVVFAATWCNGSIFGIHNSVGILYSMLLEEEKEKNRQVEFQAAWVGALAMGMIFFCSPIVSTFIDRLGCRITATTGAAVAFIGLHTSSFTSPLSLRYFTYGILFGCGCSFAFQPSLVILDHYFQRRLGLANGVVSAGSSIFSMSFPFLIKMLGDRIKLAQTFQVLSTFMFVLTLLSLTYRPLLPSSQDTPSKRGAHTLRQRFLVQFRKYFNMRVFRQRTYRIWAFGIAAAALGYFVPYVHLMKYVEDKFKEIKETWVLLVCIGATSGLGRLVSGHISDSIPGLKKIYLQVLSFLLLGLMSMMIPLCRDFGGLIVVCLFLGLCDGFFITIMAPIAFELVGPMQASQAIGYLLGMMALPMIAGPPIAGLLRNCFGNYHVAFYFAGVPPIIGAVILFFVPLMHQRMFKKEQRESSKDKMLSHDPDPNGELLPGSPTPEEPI

N[C@@H](Cc1cc(I)c(Oc2cc(I)c(O)c(I)c2)c(I)c1)C(=O)O [T4, 3,3′,5,5′-tetraiodothyronine]
inhibition at 10 µM (MCT8 [1]; labeled T4 10 nm, inhibitor 10 μM, MCT8 cRNA-injected oocytes, read-out: % inhibition ± SEM of uptake of T4): 69 ± 7%
inhibition at 10 µM (MCT8 [1]; read-out: % inhibition ± SEM of uptake of T3): 26 ± 7%
Inhibition of labeled T4 and T3 uptake by MCT8 (in words) (MCT8 [1]; unlabeled competitor, taurocholate and probenecid data not shown): potently inhibited
Substrate specificity: transport by MCT8 (in words) (MCT8 [2]; 10 nM iodothyronines or amino acids, MCT8 cRNA-injected vs uninjected oocytes): rapid uptake
Uptake into oocytes at 4 C (in words) (MCT8 [2]; 10 nM, 2 min, 4 C, marked increases at 15, 25 and 37 C): significant uptake
Na+ dependence of transport by MCT8 (MCT8 [2]; NaCl replaced by choline chloride): modest but consistent inhibition
Increase in initial uptake compared with uninjected oocytes (MCT8 [2]; oocytes injected with 4.6 ng MCT8 cRNA, 10 nM ligand, 25 C): ~10 fold
Saturability of transport by MCT8 (MCT8 [3]): saturable
Transport in rat MCT1 cRNA-injected oocytes compared to control oocytes (in words) (rat MCT1): no additional uptake
Increase in transport at lowest amount of MCT8 cRNA (MCT8 [4]): 7.3 fold

Source: patent publication US20050159352A1, “Use of monocarboxylate transporter protein for thyroid hormone transport” (priority 2002, published 2005)
